In general, Km refers to the concentration of substrate that gives half-maximal velocity. As a reminder, the Ki is a dissociation constant, usually derived from enzyme kinetics or from competition with a known ligand. Usually IC50 stands for the midpoint of a concentration-inhibition curve.

The target of test [1] is T1, mouse/human type 2 prolyl 4-hydroxylase tetramer (α22β2) (Mus musculus, UniProt Q60716).
T1 construct: the cDNA clones, considered in combination, cover the whole coding region of the mouse α2 subunit; made in house; host or cells: Spodoptera frugiperda Sf9 insect cells (baculovirus pVL1392 construct, co-infection with PDI/β virus); 0.1% Triton X-100 extract
T1 sequence (Q60716 20-537 limits assumed): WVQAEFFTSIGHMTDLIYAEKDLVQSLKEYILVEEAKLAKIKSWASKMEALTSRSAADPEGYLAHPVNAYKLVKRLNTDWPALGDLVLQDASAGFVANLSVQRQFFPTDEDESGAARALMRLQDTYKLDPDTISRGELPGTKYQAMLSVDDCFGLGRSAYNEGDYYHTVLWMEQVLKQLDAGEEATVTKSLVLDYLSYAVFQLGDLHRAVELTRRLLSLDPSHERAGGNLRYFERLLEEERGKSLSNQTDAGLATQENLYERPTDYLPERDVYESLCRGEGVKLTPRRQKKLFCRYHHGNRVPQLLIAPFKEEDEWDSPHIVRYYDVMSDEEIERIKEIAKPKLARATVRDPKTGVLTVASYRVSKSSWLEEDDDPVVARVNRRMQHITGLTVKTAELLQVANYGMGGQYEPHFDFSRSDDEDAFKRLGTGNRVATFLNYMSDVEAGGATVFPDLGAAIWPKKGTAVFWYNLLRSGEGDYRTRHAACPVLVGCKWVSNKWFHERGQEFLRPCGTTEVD
T1 sequence (P07237 18-508 partner): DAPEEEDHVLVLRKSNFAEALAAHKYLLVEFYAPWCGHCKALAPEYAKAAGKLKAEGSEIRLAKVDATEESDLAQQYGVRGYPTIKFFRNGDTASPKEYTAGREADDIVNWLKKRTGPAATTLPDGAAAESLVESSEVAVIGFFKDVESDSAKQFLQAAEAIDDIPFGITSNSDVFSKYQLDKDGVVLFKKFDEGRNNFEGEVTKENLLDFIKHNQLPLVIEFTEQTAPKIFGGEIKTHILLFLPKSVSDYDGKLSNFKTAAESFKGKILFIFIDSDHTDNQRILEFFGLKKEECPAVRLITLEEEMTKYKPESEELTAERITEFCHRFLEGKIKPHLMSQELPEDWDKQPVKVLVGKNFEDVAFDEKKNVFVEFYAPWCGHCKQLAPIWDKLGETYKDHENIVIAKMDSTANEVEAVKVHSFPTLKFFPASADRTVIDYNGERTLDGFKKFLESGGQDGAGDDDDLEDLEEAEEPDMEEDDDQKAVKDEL
Nature of the test: Prolyl 4-hydroxylase activity assay (decarboxylation of 2-oxo[1-14C]glutarate), type 2 enzyme. The format is biochemical. Conditions: for IC50: α22β2, footnote: values determined as IC50, read-out: Ki column, values determined as IC50. On the procedure:
(§1) A recombinant baculovirus coding for the mouse α2 subunit was generated and used to infect S. frugiperda insect cells with or without the human PDI/β subunit, wherein the insect cells were infected at a multiplicity of 5. For production of an enzyme tetramer, the human α59 1 (see, Vuori, et al., supra) or mouse α2 viruses and the PDI/β viruses (id.) were used in a 1:1 or 2:1 ratio. […] The resulting supematants were analyzed by SDS/8% PAGE or nondenaturing 7.5% PAGE and assayed for enzyme activities. The cell pellets were further solubilized in 1% SDS, and the 0.1% Triton X-100-soluble and 1% SDS-soluble proteins were analyzed by SDS/PAGE under reducing for the α1 subunit of prolyl 4-hydroxylase (Veijola et al., supra; Vuori et al., supra; John et al. […] The 0.1% Triton X-100 extracts from cell homogenates containing either the mouse-human type II or the human type I enzyme were analyzed for prolyl 4-hydroxylase activity with an assay based on the hydroxylation-coupled decarbosylation of 2-oxo[1^14C]glutarate (Kivirikko and Myllyla, supra).

The target in test [2] is T2, human type 1 prolyl 4-hydroxylase tetramer (α12β2) (Homo sapiens, UniProt P13674).
T2 construct: made in house; host or cells: Spodoptera frugiperda Sf9 insect cells (baculovirus co-infection); 0.1% Triton X-100 extract
T2 sequence (P13674 18-534): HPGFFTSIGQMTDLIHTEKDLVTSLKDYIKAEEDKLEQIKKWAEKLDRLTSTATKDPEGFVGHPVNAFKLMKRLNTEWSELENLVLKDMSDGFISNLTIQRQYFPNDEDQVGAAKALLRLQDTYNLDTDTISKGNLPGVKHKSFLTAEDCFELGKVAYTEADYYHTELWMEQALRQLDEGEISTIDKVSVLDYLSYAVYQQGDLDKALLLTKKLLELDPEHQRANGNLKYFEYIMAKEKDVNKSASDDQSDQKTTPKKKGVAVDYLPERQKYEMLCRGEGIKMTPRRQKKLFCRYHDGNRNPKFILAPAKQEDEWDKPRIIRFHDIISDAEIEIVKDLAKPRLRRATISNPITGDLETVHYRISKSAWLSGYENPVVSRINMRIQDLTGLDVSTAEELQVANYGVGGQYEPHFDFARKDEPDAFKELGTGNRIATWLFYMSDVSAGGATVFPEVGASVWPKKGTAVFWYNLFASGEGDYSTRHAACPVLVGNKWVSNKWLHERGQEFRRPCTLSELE
T2 sequence (P07237 18-508 partner): as the sequence (P07237 18-508 partner) above
Nature of the test: Prolyl 4-hydroxylase activity assay (decarboxylation of 2-oxo[1-14C]glutarate), type 1 enzyme. As to conditions: α12β2, recombinant enzyme from insect cells, 0.1% Triton X-100 extract. The class given is biochemical. The method, then:
as §1

Where [3] appears, read: α22β2 (mouse α2, human PDI/β), recombinant enzyme from insect cells.

As for poly (L-proline), the “inhibition of the type 2 enzyme” value in test [1] (type 2 enzyme compared with type 1) is listed as “inhibited by poly (L-proline) only at very high concentrations”.
With `O=C(O)CCC(=O)C(=O)O` [2-Oxoglutatrate, 2-oxoglutarate], the Km stood at 12 µM in test [1] (setting [3]) and 22 µM in test [2].
`O=C(O)c1ccnc(C(=O)O)c1` [Pyridine-2,4-dicarboxylate]: the Ki in test [1] (setting [3]) came out at 1000 nM; in test [2] it was 2000 nM.
As to (Pro-Pro-Gly)10 [(Pro--Pro--Gly)], the figures for the Km in test [1] (setting [3]) and in test [2] were 45 µM and 18 µM, respectively.
Consider Poly(t-proline), Mt 44,000, for which the IC50 in test [1] came to 30 µM. Also, the Ki in test [2] was determined as 20 nM.
On to Poly(t-proline), Mt 7000, for which the IC50 in test [1] stood at 300 µM. The Ki in test [2] stood at 500 nM.
With `[Fe+2]` [Fe^2+], the Km in test [1] (setting [3]) and in test [2] was 4 µM each time.

These data come from patent publication US20020177203A1, “Alpha2 subunit of prolyl 4-hydroxylase” (priority 1996, published 2002).
